Assay [1] deals with Ba/F3 cells GFP+IL3. Kind of assay: MTT viability assay. It counts as cell-based. The following applies: Mus musculus, read-out: IC50 viability. The protocol: (§1) Drug treatments were carried out for 72 hours. Details are provided in the Supplemental Methods.
The subject of assay [2] is Ba/F3 cells expressing FLT3 ITD/D835H. Briefly: MTT viability assay. The class given is cell-based. The following applies: Mus musculus, read-out: IC50 viability. Here is the method:
as §1

In assay [3] the test system is MOLM13 cells. Kind of assay: MOLM13 viability ± coculture with HS5-GFP MSCs (MTT). The class given is cell-based. The following applies: Homo sapiens. Here is the method:
Drug treatments were carried out for 72 hours. Details are provided in the Supplemental Methods. […]
HS5-GFP human bone marrow stromal cells were plated and cultured for 72 hours to near confluence.
MOLM13 cells were then seeded onto HS5-GFP cells to establish a co-culture. Twenty-four hours later, cells
were treated with increasing concentrations of drug for an additional 72 hours. MOLM13 and HS5-GFP cells
were then separated and MTT assay s were performed for cell viability assessment of each cell population. […]

Assay [4] deals with MV4-11 cells. Briefly: CFU assay with IL-3, GM-CSF or FGF2. The class given is cell-based, human. The following applies: 7-day MV4-11 CFU assay. The protocol:
For human primary CFU assays, cells were cultured in MethoCult H4035 Optimum without EPO (Stemcell Technologies). For mouse primary CFU assays, cells were directly cultured in MethoCult M3231 (Stemcell Technologies) supplemented with 45 ng/mL of murine IL-6 (mIL-6), mIL-3, and mSCF. Both human and mouse primary cells 10,000 cells were plated in duplicate for each drug concentration. For cell line CFU assays, MV4-11 cells were treated with drugs in the presence of 20 ng/mL IL-3, GM-CSF, or FGF2. Cells were plated in MethoCult H4230 (Stemcell Technologies) in duplicates at 250 cells/plate. Plates were placed in a 37°C incubator for 7 or 14 days for human cell lines and for mouse or human primary cells, respectively. Colonies were identified as clusters containing 40 or more cells. For CFU assays using human primary CD34^+ cells, umbilical cord blood was obtained from the OSU Comprehensive Cancer Center (CCC) Leukemia Tissue Bank Shared Resource, and mononuclear cells were isolated by using density gradient centrifugation. CD34^+ cells were purified using the CD34 UltraPure MicroBead Kit (Miltenyi Biotec) according to the manufacturer’s instructions. CFU assay with CD34^+ cells was performed as described above, and the total number of colonies were counted after 7–10 days.

The subject of assay [5] is human primary AML samples. Kind of assay: CellTiterGlo viability assay, ex vivo. It counts as cell-based. Here is the method: as §1
(§2) Cell viability of primary samples […]
For murine or human primary AML cells, 100,000 cells/well were plated in a 96-well plate and treated with increasing concentrations of drug. Cell viability, via trypan blue, was measured every 24 hours. If the viability fell below 50% or at 72 hours of treatment, whichever came earlier, cell viability of each plate was measured via CellTiter-Glo. Primary human AML cells were obtained from the OSUCCC Leukemia Tissue Bank Shared […]
Primary AML samples were analyzed by targeted gene sequencing of 80 genes, as previously described (1). Samples were pooled and analyzed on a MiSeq system using the Illuminia MiSeq Reagent Kit v3. Ill umina Isis Banded Smith Waterman aligner and hg19 genome were used to align the sequences. Single nucleotide variant (SNV) and indel calling were performed using MuTect and Varscan2. A variant allele fraction (VAF) cut-off of 0.10 was set for reporting mutations. SNV that are reported as pathogenic SNP were considered mutations.
All other SNV needed to be absent from 1000 Genome database, dsSNP137 or dsSNP142. Visual inspection of all variants was carried out using Integrative Genomics Viewer (Broad Institute) . […]

The test system of assay [6] is MOLM13 cells. Kind of assay: MOLM13 viability ± cytokines (MTT). The following applies: Homo sapiens.
Method: Drug treatment effects on cell lines were assessed by MTT assay (Roche Diagnostics), as previously described ([21]). […] Drug treatments were carried out for 72 hours.
Assay [7] deals with MOLM13 cells. Briefly: MTT viability assay. The class given is cell-based. The following applies: Homo sapiens, read-out: IC50 viability. Here is the method:
as §1

For assay [8], the system named is Ba/F3 cells expressing FLT3 ITD/D835Y. Kind of assay: MTT viability assay. The class given is cell-based. The following applies: Mus musculus, read-out: IC50 viability. Here is the method: as §1
Assay [9] has as its system Ba/F3 cells expressing FLT3-ITD/F691L. Kind of assay: MTT viability assay. It counts as cell-based. The following applies: Mus musculus, BaF3, 72 hours. Here is the method:
as §1

Assay [10] has as its system MOLM13-RES cells. Briefly: MTT viability assay. The class given is cell-based. The following applies: Homo sapiens, read-out: IC50 viability. Here is the method: as §1
Assay [11] deals with Ba/F3 cells expressing FLT3 D835H. Briefly: MTT viability assay. It counts as cell-based. The following applies: Mus musculus, read-out: IC50 viability. Here is the method: as §1
The subject of assay [12] is MV4-11 cells. Kind of assay: MTT viability assay. The class given is cell-based. The following applies: Homo sapiens, read-out: IC50 viability. The protocol: as §1
The subject of assay [13] is Ba/F3 cells expressing FLT3-ITD. Kind of assay: MTT viability assay. It counts as cell-based. The following applies: Mus musculus, read-out: IC50 viability. The protocol: as §1
In assay [14] the test system is Ba/F3 cells expressing FLT3 D835Y. Briefly: MTT viability assay. It counts as cell-based. The following applies: Mus musculus, read-out: IC50 viability. The protocol: as §1
Assay [15] relates to primary FLT3-ITD/IDH2-R140Q murine leukemia cells. Briefly: CellTiterGlo viability assay, ex vivo. The class given is cell-based. The following applies: Mus musculus, 72 hours. Here is the method: as §1, §2
For murine or human primary AML cells, 100,000 cells/well were plated in a 96-well plate and treated with increasing concentrations of drug. Cell viability, via trypan blue, was measured every 24 hours. If the viability fell below 50% or at 72 hours of treatment, whichever came earlier, cell viability of each plate was measured via

Setting [16] is: BaF3, Ba/F3 GFP+IL3, MTT, 72 hours.
Where [17] appears, read: BaF3, Ba/F3 FLT3 ITD/D835H, MTT, 72 hours.
Setting [18] is: MOLM-13, MOLM13 + HS5-GFP co-culture, read-out: IC50 viability.
The mark [19] stands for this setting: MOLM-13, MOLM13, FLT3-ITD, MTT, 72 hours.
[20] abbreviates: BaF3, Ba/F3 FLT3 ITD/D835Y, MTT, 72 hours.
[21] abbreviates: MOLM13-RES, FLT3-ITD/D835Y, MTT, 72 hours.
[22] abbreviates: BaF3, Ba/F3 FLT3 D835H, MTT, 72 hours.
The mark [23] stands for this setting: MV4-11, FLT3-ITD, MTT, 72 hours.
Where [24] appears, read: BaF3, Ba/F3 FLT3 ITD, MTT, 72 hours.
Setting [25] is: BaF3, Ba/F3 FLT3 D835Y, MTT, 72 hours.
Setting [26] is: MOLM-13, MOLM13 alone (co-culture experiment), read-out: IC50 viability.
Setting [27] is: sample 240: FLT3-ITD, IDH2, NPM1, read-out: IC50 viability.
Where [28] appears, read: sample 370: FLT3-ITD, IDH1, NPM1, SMARCA2, read-out: IC50 viability.
The mark [29] stands for this setting: sample 0762 (762): FLT3-ITD, NRAS, KRAS, DNMT3A, NPM1, D835E, read-out: IC50 viability.
[30] abbreviates: sample 1069: FLT3-ITD, SRSF2, IDH2, DNMT3A, read-out: IC50 viability.
Setting [31] is: sample 1355: FLT3-ITD, NPM1, IDH2, read-out: IC50 viability.

Molecules are shown by their SMILES. Read-outs that look alike come from different tables or passages of the source. Some results are limits rather than exact numbers.

For `CO[C@@H]1[C@H](N(C)C(=O)c2ccccc2)C[C@H]2O[C@]1(C)n1c3ccccc3c3c4c(c5c6ccccc6n2c5c31)C(=O)NC4` [Midostaurin, midostaurin], the 50% inhibitory concentration (IC50) in assay [1] (setting [16]) is 328 nM; in assay [2] (setting [17]), 28 nM; in assay [3] (setting [18]) it was 99 nM; in assay [5] (sample 036: FLT3 wild-type, NRAS, IDH2, NPM1, DNMT3A, read-out: IC50 viability), 334 nM; in assay [6] (MOLM-13, read-out: IC50 viability, MOLM13 + GM-CSF), 47.4 nM; in assay [6] (MOLM-13, read-out: IC50 viability, MOLM13, no cytokine) it was 18.9 nM. Besides, in assay [4], the “Colony formation with IL-3, GM-CSF, or FGF2” value is on record as “fully or partially rescued”.
As to `CC1(COc2ccc3c(c2)ncn3-c2ccc3cccc(N4CCC(N)CC4)c3n2)COC1` [Crenolanib, crenolanib], the IC50 in assay [7] (setting [19]) came out at 7.4 nM; in [1] (setting [16]), 773 nM; in [8] (setting [20]) it was 35 nM; in assay [9] it was 58 nM; in [2] (setting [17]) it was 38 nM; in [10] (setting [21]), 11 nM. Further, the IC50 in assay [11] (setting [22]) amounted to 0.27 nM; in [12] (setting [23]) it was 6.6 nM; in assay [13] (setting [24]), 1.8 nM; in assay [14] (setting [25]), 0.068 nM; in [15], 3100 nM; in assay [3] (setting [18]), 20 nM. Further, the half-maximal inhibitory concentration (IC50) in assay [3] (setting [26]) is 5 nM; in [5] (setting [27]), 90 nM; in [5] (setting [28]), 192 nM; in assay [5] (setting [29]) it was 547 nM; in assay [5] (setting [30]), 488 nM; in assay [5] (setting [31]), 305 nM.
For `Cc1ccc(C(=O)Nc2ccc(CN3CCN(C)CC3)c(C(F)(F)F)c2)cc1C#Cc1cnc2cccnn12` [Ponatinib, ponatinib], the IC50 in [1] (BaF3, 72 h) worked out at 920 nM; in [8] (BaF3, 72 h), 106 nM; in assay [9], 41.9 nM; in assay [2] (BaF3, 72 h) it was 126 nM; in assay [11] (BaF3, 72 h) it was 89 nM; in [13] (BaF3, 72 h), 2.8 nM. Further, the IC50 in assay [14] (BaF3, 72 h) is 158 nM.
For the compound `CNC(=O)c1cc(Oc2ccc(NC(=O)Nc3ccc(Cl)c(C(F)(F)F)c3)cc2)ccn1` [Sorafenib, sorafenib], the IC50 in assay [7] (setting [19]) was 26 nM; in assay [1] (setting [16]), 3850 nM; in [8] (setting [20]) it was 3340 nM; in [9] it was 1340 nM; in assay [2] (setting [17]) it was 463 nM; in assay [10] (setting [21]), 1790 nM. In addition, the half-inhibitory concentration (IC50) in [11] (setting [22]) is 76 nM; in assay [12] (setting [23]), 8 nM; in assay [13] (setting [24]), 1.4 nM; in assay [14] (setting [25]) it was 233 nM; in [15], over 10000 nM; in assay [3] (setting [18]) it was 70 nM. In addition, the IC50 in [3] (setting [26]) is 14 nM; in [5] (setting [27]) it was 1480 nM; in assay [5] (setting [28]), 1030 nM; in assay [5] (setting [29]), 195 nM; in [5] (sample 774: FLT3-ITD, CBL, IDH1, NPM1, read-out: IC50 viability), 659 nM; in [5] (setting [30]) it was 357 nM. Further, the IC50 in assay [5] (setting [31]) worked out at 3530 nM.
In the case of `CC(C)(C)c1cc(NC(=O)Nc2ccc(-c3cn4c(n3)sc3cc(OCCN5CCOCC5)ccc34)cc2)no1` [Quizartinib, quizartinib], the IC50 in assay [7] (MOLM-13, 72 h) was 2.5 nM; in [1] (BaF3, 72 h) it was over 10000 nM; in assay [10] (72 h) it was 400 nM; in assay [12] (MV4-11, 72 h) it was 1.7 nM; in assay [3] (MOLM-13, read-out: IC50 viability, MOLM13 + HS5-GFP co-culture) it was 4.7 nM; in [5] (read-out: IC50 viability, sample 240: FLT3-ITD, IDH2, NPM1) it was 238 nM. For the same compound, the half-inhibitory concentration (IC50) in assay [5] (read-out: IC50 viability, sample 370: FLT3-ITD, IDH1, NPM1, SMARCA2) was found to be 375 nM; in [5] (read-out: IC50 viability, sample 0762 (762): FLT3-ITD, NRAS, KRAS, DNMT3A, NPM1, D835E), 357 nM; in assay [5] (read-out: IC50 viability, sample 1069: FLT3-ITD, SRSF2, IDH2, DNMT3A) it was 195 nM; in [5] (read-out: IC50 viability, sample 1355: FLT3-ITD, NPM1, IDH2) it was 400 nM.
